Assay results published in patent US20140315972A1, “RS)-2-(2-oxo-4-phenylpyrrolidin-1-yl)acetamide compound having modulatory activity with a commensurate effect, pharmaceutical substance (variants) and its application, composition (variants) thereof” (priority 2011, published 2014).
Where “and” joins values, the source holds several entries; their conditions need not be identical. Equal entries are not always repeated. Marks after values point to notes of the source that are not given here.

Key:
mice [1] = experiment: Apomorphine verticalization (positive symptoms of schizophrenia); format: in vivo; details: for Intensity of verticalization in points: mice, apomorphine 2 mg/kg s.c.
Description: Studies have been conducted on white outbred male mice (18-24 g), in comparison with the olanzapine (Zyprexa) with intraperitoneal injection.
In the model of positive symptoms of schizophrenia associated with hyperactivation of the dopamine systems, which allows to identify the ability of substances to block the dopaminergic transmission in the mesolimbic system of the brain, Phenotropil (100, 200, and 300 mg/kg) reduced the apomorphine-induced (2 mg/kg subcutaneously) verticalization intensity scores (Table 4) by 45%, by 2.0 and 2.6 times, respectively.

rats [2] = experiment: Anti-ulcerogenic action under Ds-conditions; format: in vivo; details: listed as Phenotropil
mice [3] = experiment: Conflict situation (tranquilizing effect); format: in vivo; details: 300 mg/kg
Description: The tranquilizing effect of Phenotropil (300 mg/kg) was studied by the method of conflict situation and conflict of two reflexes (Vogel, 1971; Sanger et al., 1991; File, 1995; Molodavkin, Voronina, 1995), associated in this case with the desire to satisfy the motivation (drinking) and application of punishment (electric shock, received after each attempt to satisfy the motivation). In the created conflict situation, the animal is experiencing a strong negative stress. Tranquilizers reduce the level of anxiety and psychoemotional stress.

rats [4] = experiment: Retrograde amnesia of CRPA induced by electroshock and scopolamine, adult rats; format: in vivo
From the text: Phenotropil has a pronounced mnemotropic and nootropic activity. The results of the study of the antiamnestic activity (classical technique in the equipment manufactured by Lafayette Instrument Co, USA) in the retrograde amnesia of the passive avoidance conditional reflex (CRPA) induced by maximal electroshock (MES) and scopolamine in male rats (180-250 g) are shown in Table 7. […] Taking into account the studies using the open field and cross maze tests, the nootropic action component of the modulatory drug not only may be more pronounced, but is broader in manifestation depending on the type of disorder or in unfamiliar situational conditions. The pronounced nootropic activity of Phenotropil (100, 200, 300 mg/kg) also manifests in rat pups of both sexes 30-35 days of age (Table 7.1) after scopolamine-induced CRPA amnesia.

HSP70 = HSP70 expression in the myocardium (Western blot); format: in vivo, rats; details: for increase of NSP70 level in the myocardium vs Ns control: negative stress state; for increase of NSP70 content in the heart vs untreated control: no stress; for HSP 70 in myocardium: Wistar rats
From the text: Determination of NSP70 (ng/mg of total protein) was studied in myocardial preparations by Western blot analysis; the results are presented in Table 14.1.

Solubility = format: physicochemical
From the text: The crystalline powder of the Phenotropil substances is not volatile, has white, rarely white to slightly yellowish or slightly cream color, bitter taste (bitter taste that disappears in the mouth rather quickly after dissolution, leaving no unpleasant sensations). In the related products, the bitter taste persists. The Compounds are sparingly soluble in water and saline, moderately soluble in 96.0% alcohol and chloroform. Readily soluble in water and saline under heating, but the solutions are not stable during cooling and storage under normal conditions (not more than 2 hours, which is acceptable for the extemporaneous preparations and research), moderately soluble in 5.0% glucose solution, dissolve well in the presence of solubilizers and emulsifiers. Tween80 and cyclodextrins increase solubility in water, especially Tween80, while cyclodextrins have limitations by concentration. Sterile 0.001-3% solutions of Phenotropil in the presence of cyclodextrin or Tween (water for injection, Phenotropil, cyclodextrin (or Tween solution) were thoroughly stirred for 30 minutes, filtered, dispensed into ampoules of neutral glass, the ampoules were sealed and sterilized for 15 minutes at 120° C.). Sterile solutions are storage stable for at least 12 months. The ultimate shelf life is not specified; the samples are being stored.

[5] = normal conditions and high physical activity; cited from earlier work
rats [6] = experiment: Alcohol dependence and abstinence, free choice of water and alcohol; format: in vivo
From the text: The antitoxic, sobering and anticraving, activity, as well as the effect of Phenotropil in abstinence was studied on white outbred male rats (weighing 180-220 g) and male mice (weighing 18-24 g) in chronic alcoholism. […] Alcoholized rats after four months of alcoholism and treatment with Phenotropilom voluntarily give up intake of alcohol (anticraving activity) with free choice of water and alcohol (Table 11).

[7] = Body weight in obese rats, 1 month intragastric course; format: in vivo; details: for Body weight (%): change vs control (dist. water) = 100
Description: Investigation of the effect of Phenotropil on body weight at course intragastric administration for 1 month was performed at doses of 25, 50, 100, 200 and 300 mg/kg/day in white outbred rats of both sexes with obvious signs of obesity (380-430 g) without changes in diet and behavior. Each animal was placed in a standard single cell. The body weight, the amount of water and food consumed per day were recorded.

[8] = abstinent rats, 7-month alcoholism, 200 mg/kg, day 3
[9] = abstinent rats, 7-month alcoholism, 200 mg/kg, day 4
[10] = after-effect of 45-day course 100 mg/kg, 1st day
[11] = after-effect of 45-day course 100 mg/kg, 2nd day
[12] = after-effect of 45-day course 100 mg/kg, 3rd day
[13] = rats, 4-month alcoholism, 100 mg/kg, 45th day of administration

NC(=O)CN1CC(c2ccccc2)CC1=O (racemic) [Compound 1, (RS)-2-(2-oxo-4-phenylpyrrolidine-1-yl)acetamide]
reduction of verticalization intensity (mice [1]; 1 mg/kg): 26%
reduction of verticalization intensity (mice [1]; 10 mg/kg): 66.5%
reduction of verticalization intensity (mice [1]; 100 mg/kg): 45%
reduction of verticalization intensity (mice [1]; 200 mg/kg): 2.0 times
reduction of verticalization intensity (mice [1]; 300 mg/kg): 2.6 times
Intensity of verticalization in points (mice [1]; 100 mg/kg i.p.): 27 ± 8.7 points
Intensity of verticalization in points (mice [1]; 200 mg/kg i.p.): 25 ± 5.1 points
Intensity of verticalization in points (mice [1]; 300 mg/kg i.p.): 19 ± 5.1 points
ulcer number vs control (100) (rats [2]; 25 mg/kg + 5.0% glucose solution, 25 mg/kg): −45% and −42 * %
ulcer number vs control (100) (rats [2]; 50 mg/kg + 5.0% glucose solution, 50 mg/kg): −63% and −63 * %
ulcer number vs control (100) (rats [2]; 100 mg/kg + 5.0% glucose solution, 100 mg/kg): −80% and −80 * %
reduction of amount of intakes for three minutes (mice [3]): 74.4%
reduction of anxiety and emotional stress in the conflict situation vs control (mice [3]): 291.0%
Number of water intakes for 3 min (mice [3]; mice): 7.3 ± 3.9
The time between the first and second intake of water (mice [3]; mice): 31.1 ± 3.4 s
Latent period of the first entry into the chamber at testing the preservation of CRPA, after 24 hours (rats [4]; ECS amnesia, 25 mg/kg): 65.6* seconds
Latent period of the first entry into the chamber at testing the preservation of CRPA, after 24 hours (rats [4]; ECS amnesia, 50 mg/kg): 74.4* seconds
Latent period of the first entry into the chamber at testing the preservation of CRPA, after 24 hours (rats [4]; ECS amnesia, 100 mg/kg): 112.5* seconds
Latent period of the first entry into the chamber at testing the preservation of CRPA, after 24 hours (rats [4]; scopolamine 1 mg/kg amnesia, 25 mg/kg): 78.8* seconds
Latent period of the first entry into the chamber at testing the preservation of CRPA, after 24 hours (rats [4]; scopolamine 1 mg/kg amnesia, 50 mg/kg): 96.0* seconds
Latent period of the first entry into the chamber at testing the preservation of CRPA, after 24 hours (rats [4]; scopolamine 1 mg/kg amnesia, 100 mg/kg): 125.3* seconds
increase of NSP70 level in the myocardium vs Ns control (HSP70; 25 mg/kg): 38%
increase of NSP70 content in the heart vs untreated control (HSP70; 25 mg/kg): 65%
increase of NSP70 level in the myocardium vs Ns control (HSP70; 50 mg/kg): 41.4%
increase of NSP70 content in the heart vs untreated control (HSP70; 50 mg/kg): 82%
increase of NSP70 level in the myocardium vs Ns control (HSP70; 100 mg/kg): 62%
increase of NSP70 content in the heart vs untreated control (HSP70; 100 mg/kg): 73%
increase of NSP70 level in the myocardium vs Ns control (HSP70; 300 mg/kg): 89.7%
increase of NSP70 content in the heart vs untreated control (HSP70; 300 mg/kg): 273%
HSP 70 in myocardium (HSP70; 25 mg/kg i.p., normal conditions): 0.18 ± 0.011 ng/mg total protein
HSP 70 in myocardium (HSP70; 50 mg/kg i.p., normal conditions): 0.20 ± 0.014 ng/mg total protein
HSP 70 in myocardium (HSP70; 100 mg/kg i.p., normal conditions): 0.19 ± 0.008 ng/mg total protein
HSP 70 in myocardium (HSP70; 300 mg/kg i.p., normal conditions): 0.41 ± 0.016 ng/mg total protein
HSP 70 in myocardium (HSP70; Ns + 25 mg/kg i.p.): 0.40 ± 0.02 ng/mg total protein
HSP 70 in myocardium (HSP70; Ns + 50 mg/kg i.p.): 0.41 ± 0.03 ng/mg total protein
HSP 70 in myocardium (HSP70; Ns + 100 mg/kg i.p.): 0.47 ± 0.02 ng/mg total protein
HSP 70 in myocardium (HSP70; Ns + 300 mg/kg i.p.): 0.55 ± 0.03 ng/mg total protein
solubility in 96% alcohol and chloroform (Solubility): moderately soluble
solubility in water (and saline) (Solubility): sparingly soluble in water
time of excretion from the body [5]: 72 h
Alcohol consumption (rats [6]; [8]): 4.8 ± 0.8 mL/day
Alcohol consumption vs control (rats [6]; [8]): −58.6%
Alcohol consumption (rats [6]; [9]): 2.4 ± 0.7 mL/day
Alcohol consumption vs control (rats [6]; [9]): −74.0%
Alcohol consumption (rats [6]; abstinent rats, 7-month alcoholism, 200 mg/kg, day 14): 0.0 ** ml/day
Alcohol consumption (rats [6]; [10]): 3.3 ± 1.1 mL/day
Water consumption (rats [6]; [10]): 26.7 ± 3.9 mL/day
Alcohol consumption (rats [6]; [11]): 0.0 ** ml/day
Water consumption (rats [6]; [11]): 20.2 ± 3.3 mL/day
Alcohol consumption (rats [6]; [12]): 0.0 ** ml/day
Water consumption (rats [6]; [12]): 21.2 ± 3.5 mL/day
Alcohol consumption (rats [6]; [13]): 10.5 ± 4.2 mL/day
Water consumption (rats [6]; [13]): 24.0 ± 5.9 mL/day
Body weight (%) ([7]; 25 mg/kg): −14.0%
reduction of body weight relative to control ([7]; 25 mg/kg/day i.g. 1 month): 14%
Body weight (%) ([7]; 50 mg/kg): −25.0 * %
reduction of body weight relative to control ([7]; 50 mg/kg/day i.g. 1 month): 25%
Body weight (%) ([7]; 100 mg/kg): −33.3 * %
reduction of body weight relative to control ([7]; 100 mg/kg/day i.g. 1 month): 33.3%
Body weight (%) ([7]; 200 mg/kg): −35.0 * %
reduction of body weight relative to control ([7]; 200 mg/kg/day i.g. 1 month): 35%
Body weight (%) ([7]; 300 mg/kg): −32.0 * %
reduction of body weight relative to control ([7]; 300 mg/kg/day i.g. 1 month): 32%
